Measured values: ChEMBL document CHEMBL1833792, “Synthesis of glycoconjugate carbonic anhydrase inhibitors by ruthenium-catalysed azide-alkyne 1,3-dipolar cycloaddition” (Bioorg Med Chem Lett, 2011)

Columns and labels:
[1] = Selectivity ratio of Ki for carbonic anhydrase 1 to Ki for carbonic anhydrase 9
[2] = Selectivity ratio of Ki for carbonic anhydrase 2 to Ki for carbonic anhydrase 9
[3] = target: Carbonic anhydrase 1 (Homo sapiens) (UniProt P00915)
Description: Inhibition of recombinant carbonic anhydrase 1 by stopped flow CO2 hydration assay

[4] = target: Carbonic anhydrase 2 (Homo sapiens) (UniProt P00918)
Description: Inhibition of recombinant carbonic anhydrase 2 by stopped flow CO2 hydration assay

[5] = target: Carbonic anhydrase 9 (Homo sapiens) (UniProt Q16790)
Description: Inhibition of recombinant carbonic anhydrase 9 by stopped flow CO2 hydration assay

[6] = Selectivity ratio of Ki for carbonic anhydrase 1 to Ki for carbonic anhydrase 2

Sequence of Carbonic anhydrase 1 (Homo sapiens) (P00915 2-261 limits assumed): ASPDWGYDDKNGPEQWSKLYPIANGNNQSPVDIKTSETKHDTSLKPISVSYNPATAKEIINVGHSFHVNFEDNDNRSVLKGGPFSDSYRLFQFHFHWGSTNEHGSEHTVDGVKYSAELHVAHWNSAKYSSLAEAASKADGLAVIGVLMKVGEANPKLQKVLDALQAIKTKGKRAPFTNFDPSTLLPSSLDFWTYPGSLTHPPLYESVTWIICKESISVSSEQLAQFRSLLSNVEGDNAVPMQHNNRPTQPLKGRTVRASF

Ratio Ki [1]	Ratio Ki [2]	Kis [3]	Kis [4]	Kis [5]	Ratio Ki [6]	SMILES
0.56	0.53	4.9 nM	4.6 nM	8.7 nM	–	NS(=O)(=O)c1ccc(-c2cnnn2[C@@H]2O[C@H](CO)[C@@H](O[C@H]3O[C@H](CO)[C@@H](O)[C@H](O)[C@H]3O)[C@H](O)[C@H]2O)cc1
9.4	1.7	79 nM	13.9 nM	8.4 nM	–	NS(=O)(=O)c1ccc(-c2cnnn2[C@@H]2O[C@H](CO)[C@H](O)[C@H](O)[C@H]2O)cc1
1.7	0.18	83 nM	8.9 nM	48.3 nM	–	NS(=O)(=O)c1ccc(-c2cnnn2[C@@H]2OC[C@@H](O)[C@@H](O)[C@@H]2O)cc1
11	1.1	74 nM	7.5 nM	7 nM	–	NS(=O)(=O)c1ccc(-c2cnnn2[C@@H]2O[C@H](CO)[C@@H](O)[C@H](O)[C@H]2O)cc1
42.7	5	1360 nM	163 nM	32.6 nM	–	CC(=O)OC[C@H]1O[C@@H](n2nncc2-c2ccc(S(N)(=O)=O)cc2)[C@H](OC(C)=O)[C@@H](OC(C)=O)[C@@H]1OC(C)=O

The next lines start with the compound.

SMILES	Ratio Ki [1]	Ratio Ki [2]	Kis [3]	Kis [4]	Kis [5]	Ratio Ki [6]
CC(=O)OC[C@H]1O[C@@H](n2nncc2-c2ccc(S(N)(=O)=O)cc2)[C@H](OC(C)=O)[C@@H](OC(C)=O)[C@@H]1O[C@H]1O[C@H](COC(C)=O)[C@@H](OC(C)=O)[C@H](OC(C)=O)[C@H]1OC(C)=O	0.91	0.85	6.7 nM	6.3 nM	7.4 nM	–
COC(=O)[C@H]1O[C@@H](n2nncc2-c2ccc(S(N)(=O)=O)cc2)[C@H](OC(C)=O)[C@@H](OC(C)=O)[C@@H]1OC(C)=O	0.45	0.4	3.5 nM	3.1 nM	7.7 nM	–
CC(=O)OC[C@H]1O[C@@H](n2nncc2-c2ccc(S(N)(=O)=O)cc2)[C@H](OC(C)=O)[C@@H](OC(C)=O)[C@H]1OC(C)=O	9.7	0.33	71 nM	2.4 nM	7.3 nM	–
CC(=O)O[C@H]1[C@H](OC(C)=O)[C@H](OC(C)=O)CO[C@H]1n1nncc1-c1ccc(S(N)(=O)=O)cc1	64	0.04	4390 nM	2.9 nM	68.3 nM	1510
